Measurements taken from patent US20090214670A1, “Rhcc peptide and uses thereof” (Optovent AB, priority 2005, published 2009).

How the values were obtained:
RHCC [1] = experiment: filtering experiment: excess metal complex removed via size exclusion filters, absorption spectra; format: binding, Staphylothermus marinus; conditions: mixed with excess metal complex, stirred at least 1 hour, solvent replaced via size exclusion filters; FIG. 2 and 3
Description: After leaving the mixed solution stirred for at least 1 hour, the solvent containing RHCC, the metal complex and the buffer or any other supporting salt, the solvent together with any excess metal complex and salt is replaced via size exclusion filters by a solvent NOT containing any metal complex. The result of such an experiment is plotted in FIG. 2. […] In combination with the x-ray structures a location of HgI4^2− inside the cavities in solution can be concluded. […] According to the crystal structure, incorporation into the cavities of RHCC can be concluded for cisplatin.

[2] = system: IL-6-dependent BAF/3 cell line; experiment: biological activity on the IL-6-dependent BAF/3 cell line; format: cell-based
Text: The calculated molecular mass of RHCC-IL-6 monomer is 28.3 kDa. […] The corresponding value for the tetramer is […].

RHCC [3] = experiment: localisation by UV-Vis spectroscopy (solvatochromic effect); format: binding, Staphylothermus marinus; conditions: tris-buffer solution with RHCC compared with water, methanol, water/methanol 50/50; FIG. 1
Description: The location of a drug inside the cavities can be detected by techniques sensitive to the local microscopic environment of the molecule, e.g. the drug. For example the absorption of visible light (UV-Vis spectroscopy—solvatochromic effect) can be used to probe the local environment of e.g. […] (FIG. 1). The position of the absorption peak of […] is measured in water (FIG. 1—Plot A), in methanol (FIG. 1, Plot C), water/methanol (50/50) (FIG. 1—Plot B) and in a mixture with the peptide (FIG. 1—Plot E).

RHCC peptide = experiment: NMR and UV-Vis absorption experiments on incorporation of metal ions in solution; format: binding, Staphylothermus marinus
Text: For the addition of electrons according to reaction (4), electrochemical or photoelectrochemical reduction (with e.g. [Ru(bpy)3]^2+) may be used, although the simple addition of a chemical reducing agent (e.g. NaBH4) is also possible.

| Compound | interaction of metal complex with RHCC after filtering off excess complex (RHCC [1]) | biological activity on IL-6-dependent BAF/3 cell line [2] | local environment of the complex when mixed with the peptide (absorption peak position) (RHCC [3]) | incorporation of the metal ion into RHCC peptide in solution (RHCC peptide) |
| --- | --- | --- | --- | --- |
| N.N.[Cl][Pt][Cl] [cisplatin] | strong interaction | – | – | – |
| RHCC-IL-6 fusion molecule: fusion protein: histidine tag, human interleukin-6 sequence, GS linker, RHCC sequence; forms a tetramer | – | full biological activity | – | – |
| [I][Hg-2]([I])([I])[I] [HgI4^2−] | strong enough to prevent HgI4^2− from being filtered from the solution | – | resides in a hydrophobic environment | incorporates the metal ion in solution |
| [Cl][Pt-2]([Cl])([Cl])[Cl] [[PtCl4]^−] | – | – | – | incorporates the metal ion in solution |
